These are literature values, as cited in patent publication US9963464B2, “Macrocyclic compounds” (Bayer Pharma Aktiengesellschaft, priority 2014, dated 2018).

This data set deals with bronchospasms. The note with it: in vivo; cited from earlier work.

On to `C[N+]1(C)[C@@H]2C[C@@H](OC(=O)C(O)(c3cccs3)c3cccs3)C[C@H]1[C@@H]1O[C@@H]12` [tiotropium], for which the “protection against bronchospasms (duration)” value is given as “more than 6 hours”.
